# According to PubChem BioAssay AID2060889 (Molecular Pharmacology Branch, DTP, NCI, 2025):
# Test system: LG0567-F671-PDC complex spheroids viability
# Test: Anticancer human tumor LG0567-F671-PDC patient-derived lung adenocarcinoma cell line growth inhibition [RAS]
# Conditions: for viability, T/C: stronger effect = lower value
# Summary of the method: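 Multi-cell-type spheroids: tumor cells plus HUVEC endothelial cells and mesenchymal stem cells. RAS-pathway inhibitors were combined with targeted agents, each dosed in half-log steps down from clinical Cmax, or from 10 microM when Cmax was unknown.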
# 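Note: spheroids exposed to compound for seven days before readout.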
# 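Throughout, for IC50: luminescence signal used as a proxy for viable cells.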
smiles,measurement,setting,value
CCc1c2c(nc3ccc(O)cc13)-c1cc3c(c(=O)n1C2)COC(=O)[C@]3(O)CC + CCn1c(-c2cc(N3CCN(C)CC3)cnc2C(C)OC)c2c3cc(ccc31)-c1csc(n1)CC(NC(=O)C1CC1C)C(=O)N1CCCC(N1)C(=O)OCC(C)(C)C2,IC50,"curve of first compound, second compound 0.000949 µM",< 0.000949 µM
same,IC50,"curve of first compound, second compound 0.003 µM",< 0.000949 µM
same,IC50,"curve of first compound, second compound 0.00949 µM",< 0.000949 µM
same,IC50,"curve of first compound, second compound 0.03 µM",< 0.000949 µM
same,IC50,"curve of first compound, second compound 0.0949 µM",< 0.000949 µM
same,IC50,"curve of first compound, second compound 0.3 µM",< 0.000949 µM
same,"viability, T/C","second compound 0.000949 µM, first compound 0.000949 µM",25.9%
same,"viability, T/C","second compound 0.000949 µM, first compound 0.003 µM",19.2%
same,"viability, T/C","second compound 0.000949 µM, first compound 0.00949 µM",16.8%
same,"viability, T/C","second compound 0.000949 µM, first compound 0.03 µM",9.71%
same,"viability, T/C","second compound 0.000949 µM, first compound 0.0949 µM",6.4%
same,"viability, T/C","second compound 0.000949 µM, first compound 0.3 µM",3.66%
same,"viability, T/C","second compound 0.003 µM, first compound 0.000949 µM",13.2%
same,"viability, T/C","second compound 0.003 µM, first compound 0.003 µM",10.5%
same,"viability, T/C","second compound 0.003 µM, first compound 0.00949 µM",8.66%
same,"viability, T/C","second compound 0.003 µM, first compound 0.03 µM",6.1%
same,"viability, T/C","second compound 0.003 µM, first compound 0.0949 µM",4.22%
same,"viability, T/C","second compound 0.003 µM, first compound 0.3 µM",2.19%
same,"viability, T/C","second compound 0.00949 µM, first compound 0.000949 µM",6.6%
same,"viability, T/C","second compound 0.00949 µM, first compound 0.003 µM",5.95%
same,"viability, T/C","second compound 0.00949 µM, first compound 0.00949 µM",4.92%
same,"viability, T/C","second compound 0.00949 µM, first compound 0.03 µM",3.8%
same,"viability, T/C","second compound 0.00949 µM, first compound 0.0949 µM",2.17%
same,"viability, T/C","second compound 0.00949 µM, first compound 0.3 µM",1.39%
same,"viability, T/C","second compound 0.03 µM, first compound 0.000949 µM",4.12%
same,"viability, T/C","second compound 0.03 µM, first compound 0.003 µM",3.96%
same,"viability, T/C","second compound 0.03 µM, first compound 0.00949 µM",3.68%
same,"viability, T/C","second compound 0.03 µM, first compound 0.03 µM",2.7%
same,"viability, T/C","second compound 0.03 µM, first compound 0.0949 µM",1.39%
same,"viability, T/C","second compound 0.03 µM, first compound 0.3 µM",0.64%
same,"viability, T/C","second compound 0.0949 µM, first compound 0.000949 µM",3.25%
same,"viability, T/C","second compound 0.0949 µM, first compound 0.003 µM",3.49%
same,"viability, T/C","second compound 0.0949 µM, first compound 0.00949 µM",2.57%
same,"viability, T/C","second compound 0.0949 µM, first compound 0.03 µM",1.66%
same,"viability, T/C","second compound 0.0949 µM, first compound 0.0949 µM",1.51%
same,"viability, T/C","second compound 0.0949 µM, first compound 0.3 µM",0.39%
same,"viability, T/C","second compound 0.3 µM, first compound 0.000949 µM",2.45%
same,"viability, T/C","second compound 0.3 µM, first compound 0.003 µM",2.81%
same,"viability, T/C","second compound 0.3 µM, first compound 0.00949 µM",2.34%
same,"viability, T/C","second compound 0.3 µM, first compound 0.03 µM",1.76%
same,"viability, T/C","second compound 0.3 µM, first compound 0.0949 µM",0.8%
same,"viability, T/C","second compound 0.3 µM, first compound 0.3 µM",0.31%
CCN1CCN(Cc2ccc(Nc3ncc(F)c(-c4cc(F)c5nc(C)n(C(C)C)c5c4)n3)nc2)CC1,"viability, T/C",compound 0.00316 µM,94.3% [middle of 4 runs]
same,"viability, T/C",compound 0.01 µM,85% [middle of 4 runs]
same,"viability, T/C",compound 0.0316 µM,82.3% [middle of 4 runs]
same,"viability, T/C",compound 0.1 µM,80.7% [middle of 4 runs]
same,"viability, T/C",compound 0.316 µM,75.6% [middle of 4 runs]
same,"viability, T/C",compound 1 µM,67% [middle of 4 runs]
same,IC50,curve of compound,> 1 µM
CC(C)NCC(C(=O)N1CCN(c2ncnc3c2C(C)CC3O)CC1)c1ccc(Cl)cc1 (stereo unspecified) + C=CC(=O)N1CCN(c2nc(OCC3CCCN3C)nc3c(F)c(-c4nc(N)cc(C)c4C(F)(F)F)c(Cl)cc23)C(C)C1,IC50,"curve of first compound, second compound 0.00316 µM",< 0.0316 µM
same,IC50,"curve of first compound, second compound 0.01 µM",< 0.0316 µM
same,IC50,"curve of first compound, second compound 0.0316 µM",< 0.0316 µM
same,IC50,"curve of first compound, second compound 0.1 µM",< 0.0316 µM
same,IC50,"curve of first compound, second compound 0.316 µM",< 0.0316 µM
same,IC50,"curve of first compound, second compound 1 µM",< 0.0316 µM
same,"viability, T/C","second compound 0.00316 µM, first compound 0.0316 µM",16.6%
same,"viability, T/C","second compound 0.00316 µM, first compound 0.1 µM",18.9%
same,"viability, T/C","second compound 0.00316 µM, first compound 0.316 µM",14.9%
same,"viability, T/C","second compound 0.00316 µM, first compound 1 µM",10.8%
same,"viability, T/C","second compound 0.00316 µM, first compound 3.16 µM",10.3%
same,"viability, T/C","second compound 0.00316 µM, first compound 10 µM",9%
same,"viability, T/C","second compound 0.01 µM, first compound 0.0316 µM",17%
same,"viability, T/C","second compound 0.01 µM, first compound 0.1 µM",11.4%
same,"viability, T/C","second compound 0.01 µM, first compound 0.316 µM",10.8%
same,"viability, T/C","second compound 0.01 µM, first compound 1 µM",9.98%
same,"viability, T/C","second compound 0.01 µM, first compound 3.16 µM",8.68%
same,"viability, T/C","second compound 0.01 µM, first compound 10 µM",8.55%
same,"viability, T/C","second compound 0.0316 µM, first compound 0.0316 µM",13.8%
same,"viability, T/C","second compound 0.0316 µM, first compound 0.1 µM",13.7%
same,"viability, T/C","second compound 0.0316 µM, first compound 0.316 µM",10.3%
same,"viability, T/C","second compound 0.0316 µM, first compound 1 µM",8.15%
same,"viability, T/C","second compound 0.0316 µM, first compound 3.16 µM",7.81%
same,"viability, T/C","second compound 0.0316 µM, first compound 10 µM",7.64%
same,"viability, T/C","second compound 0.1 µM, first compound 0.0316 µM",12.6%
same,"viability, T/C","second compound 0.1 µM, first compound 0.1 µM",13.6%
same,"viability, T/C","second compound 0.1 µM, first compound 0.316 µM",11.4%
same,"viability, T/C","second compound 0.1 µM, first compound 1 µM",8.66%
same,"viability, T/C","second compound 0.1 µM, first compound 3.16 µM",8.46%
same,"viability, T/C","second compound 0.1 µM, first compound 10 µM",7.32%
same,"viability, T/C","second compound 0.316 µM, first compound 0.0316 µM",14.9%
same,"viability, T/C","second compound 0.316 µM, first compound 0.1 µM",11.9%
same,"viability, T/C","second compound 0.316 µM, first compound 0.316 µM",11.5%
same,"viability, T/C","second compound 0.316 µM, first compound 1 µM",9.81%
same,"viability, T/C","second compound 0.316 µM, first compound 3.16 µM",9.16%
same,"viability, T/C","second compound 0.316 µM, first compound 10 µM",7.21%
same,"viability, T/C","second compound 1 µM, first compound 0.0316 µM",15.6%
same,"viability, T/C","second compound 1 µM, first compound 0.1 µM",11.9%
same,"viability, T/C","second compound 1 µM, first compound 0.316 µM",12.7%
same,"viability, T/C","second compound 1 µM, first compound 1 µM",9.59%
same,"viability, T/C","second compound 1 µM, first compound 3.16 µM",10%
same,"viability, T/C","second compound 1 µM, first compound 10 µM",9.16%
